Reference: US10821115B2, “Compounds that inhibit Mcl-1 protein” (priority 2017, dated 2020)
Where two headings read alike, the source gives them in different places.

Columns and labels:
[1] = target: recombinant human Mcl-1 (residues 171-327) / Bim interaction (Homo sapiens (Human), UniProt Q07820); assay: biochemical; type: binding; details: read-out: Mcl-1 HTRF IC50
[2] = test system: human multiple myeloma cell line, OPM-2; assay: Cell viability assay (OPM-2 10 FBS), CellTiter-Glo; type: cell-based
In short: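 Cells were seeded at 3000 cells/well in RPMI 1640 with 10% FBS and exposed to serially diluted compounds for 16 h at 37 °C, 5% CO2.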

[3] = 0.1 nM Mcl-1(171-327), 0.05 nM biotin-Bim (51-76)
[4] = Homo sapiens, OPM-2, 16 h, read-out: OPM-2 10% FBS IC50 IP, OPM-2 cells, 10% FBS, 16 h incubation
[5] = TR-FRET, Mcl-1(171-327) / biotin-Bim (51-76)
[6] = Homo sapiens, OPM-2, 16 h, read-out: OPM-2 10% FBS IC50 IP, OPM-2 cells, 10% FBS, 16 h, CellTiter-Glo

Chain of recombinant human Mcl-1 (residues 171-327) / Bim interaction (Q07820 171-327): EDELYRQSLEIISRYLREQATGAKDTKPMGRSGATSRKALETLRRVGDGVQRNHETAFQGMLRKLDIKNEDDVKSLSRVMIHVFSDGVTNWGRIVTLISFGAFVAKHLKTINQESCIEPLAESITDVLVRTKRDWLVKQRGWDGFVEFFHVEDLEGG

Row | Compound | IC50 [1, 3] | IC50 [2, 4] | IC50 [1, 5] | IC50 [2, 6] | IC50 ([2]; read-out: OPM-2 10% FBS IC50 IP, OPM-2 cells, 10% FBS, 16 h, CellTiter-Glo)
1 | COCC[C@@H]1[C@@H](C)C/C=C/[C@](CN2CCN(C(C)C)CC2)(OC)[C@@H]2CC[C@H]2CN2C[C@@]3(CCCc4cc(Cl)ccc43)COc3ccc(nc32)C(=O)NS1(=O)=O [Example 24, (1S,3′R,6′R,7′S,8′E,11′S,12′R)-6-chloro-7′-methoxy-12′-(2-methoxyethyl)-11′-methyl-7′-((4-(1-methylethyl)-1-piperazinyl)methyl)-3,4-dihydro-2H,15′H-spiro[naphthalene-1,22′-[20]oxa[13]thia[1,14,25]triazatetracyclo [14.7.2.0~3,6~.0~19,24~]pentacosa[8,16,18,24]tetraen]-15′-one 13′,13′-dioxide] | 0.086 nM | 35 nM | – | – | –
2 | C[C@@H]1[C@@H](C)C/C=C/[C@@](O)(CC(=O)N2CCN3CCOC[C@H]3C2)[C@@H]2CC[C@H]2CN2C[C@@]3(CCCc4cc(Cl)ccc43)COc3ccc(cc32)C(=O)NS1(=O)=O [Example 100311, (1S,3′R,6′R,7′S,8′E,11′S,12′R)-6-chloro-7′-(2-((9aR)-hexahydropyrazino[2,1-c][1,4]oxazin-8(1H)-yl)-2-oxoethyl)-7′-hydroxy-11′,12′-dimethyl-3,4-dihydro-2H,15′H-spiro[naphthalene-1,22′-[20]oxa[13]thia[1,14]diazatetracyclo [14.7.2.0~3,6~.0~19,24~]pentacosa[8,16,18,24]tetraen]-15′-one 13′,13′-dioxide] | – | – | 1.03 nM | 1190 nM | –
3 | C[C@@H]1[C@@H](C)C/C=C/[C@@](O)(c2cnccn2)[C@@H]2CC[C@H]2CN2C[C@@]3(CCCc4cc(Cl)ccc43)COc3ccc(cc32)C(=O)NS1(=O)=O [Example 100357, (1S,3′R,6′R,7′S,8′E,11′S,12′R)-6-chloro-7′-hydroxy-11′,12′-dimethyl-7′-(2-pyrazinyl)-3,4-dihydro-2H,15′H-spiro[naphthalene-1,22′-[20]oxa[13]thia[1,14]diazatetracyclo [14.7.2.0~3,6~.0~19,24~]pentacosa[8,16,18,24]tetraen]-15′-one 13′,13′-dioxide] | – | – | 0.224 nM | 399 nM | –
4 | CO[C@@]1(CC(=O)N2CCCC2)/C=C/C[C@H](C)[C@@H](C)S(=O)(=O)NC(=O)c2ccc3c(c2)N(C[C@@H]2CC[C@H]21)C[C@@]1(CCCc2cc(Cl)ccc21)CO3 [Example 100010, (1 S,3′R,6′R,7′S,8′E,11′S, 12′R)-6-chloro-7′-methoxy-11′,12′-dimethyl-7′-(2-oxo-2-(1-pyrrolidinyl)ethyl)-3,4-dihydro-2H, 15′H-spiro[naphthalene-1,22′-[20]oxa[13]thia[1,14]diazatetracyclo[14.7.2.0-3,6˜.0˜19,24˜]pentacosa[8,16,18,24]tetraen]-15′-one 13′,13′-dioxide] | – | – | 0.077 nM | 142 nM | –
5 | CO[C@]1(CN2CCN3CCCC[C@@H]3C2)/C=C/C[C@H](C)[C@@H](CC2CCC2)S(=O)(=O)NC(=O)c2ccc3c(c2)N(C[C@@H]2CC[C@H]21)C[C@@]1(CCCc2cc(Cl)ccc21)CO3 [Example 40, (1S,3′R,6′R,7′R,8′E,11′S,12′R)-6-chloro-12′-(cyclobutylmethyl)-7′-methoxy-11′-methyl-7′-((9aR)-octahydro-2H-pyrido[1,2-a]pyrazin-2-ylmethyl)-3,4-dihydro-2H,15′H-spiro[naphthalene-1,22′-[20]oxa[13]thia[1,14]diazatetracyclo [14.7.2.0~3,6~.0~19,24~]pentacosa[8,16,18,24]tetraen]-15′-one 13′,13′-dioxide] | 0.444 nM | 571 nM | – | – | –
6 | CO[C@@]1(c2cccnc2)/C=C/C[C@H](C)[C@@H](C)S(=O)(=O)NC(=O)c2ccc3c(c2)N(C[C@@H]2CC[C@H]21)C[C@@]1(CCCc2cc(Cl)ccc21)CO3 [Example 100391, (1S,3′R,6′R,7′S,8′E,11′S,12′R)-6-chloro-7′-methoxy-11′,12′-dimethyl-7′-(3-pyridinyl)-3,4-dihydro-2H,15′H-spiro[naphthalene-1,22′-[20]oxa[13]thia[1,14]diazatetracyclo [14.7.2.0~3,6~.0~19,24~]pentacosa[8,16,18,24]tetraen]-15′-one 13′,13′-dioxide] | – | – | 0.441 nM | 282 nM | –
7 | CO[C@@]1(C(C)(C)O)/C=C/C[C@H](C)[C@@H](C)S(=O)(=O)NC(=O)c2ccc3c(c2)N(C[C@@H]2CC[C@H]21)C[C@@]1(CCCc2cc(Cl)ccc21)CO3 [Example 100404, (1S,3′R,6′R,7′S,8′E,11′S,12′R)-6-chloro-7′-(2-hydroxy-2-propanyl)-7′-methoxy-11′,12′-dimethyl-3,4-dihydro-2H,15′H-spiro[naphthalene-1,22′-[20]oxa[13]thia[1,14]diazatetracyclo [14.7.2.0~3,6~.0~19,24~]pentacosa[8,16,18,24]tetraen]-15′-one 13′,13′-dioxide] | – | – | 2.55 nM | 8150 nM | –
8 | CO[C@@]1(C)/C=C/C[C@H](C)[C@@H](CCN2CCOCC2)S(=O)(=O)NC(=O)c2ccc3c(c2)N(C[C@@H]2CC[C@H]21)C[C@@]1(CCCc2cc(Cl)ccc21)CO3 (single isomer, unassigned) [Example 100595] | – | – | 0.157 nM | – | 133 nM
9 | C[C@@H]1[C@@H](C)C/C=C/[C@@](O)(C#N)[C@@H]2CC[C@H]2CN2C[C@@]3(CCCc4cc(Cl)ccc43)COc3ccc(cc32)C(=O)NS1(=O)=O [Example 100235, (1S,3′R,6′R,7′S,8′E,11′S,12′R)-6-chloro-7′-hydroxy-11′,12′-dimethyl-15′-oxo-3,4-dihydro-2H-spiro[naphthalene-1,22′-[20]oxa[13]thia[1,14]diazatetracyclo [14.7.2.0~3,6~.0~19,24~]pentacosa[8,16,18,24]tetraene]-7′-carbonitrile 13′,13′-dioxide] | – | – | 1.34 nM | 644 nM | –
10 | C#C[C@@]1(OCCN2CCOCC2)/C=C/C[C@H](C)[C@@H](C)S(=O)(=O)NC(=O)c2ccc3c(c2)N(C[C@@H]2CC[C@H]21)C[C@@]1(CCCc2cc(Cl)ccc21)CO3 [Example 100505, (1S,3′R,6′R,7′R,8′E,11′S,12′R)-6-chloro-7′-ethynyl-11′,12′-dimethyl-7′-(2-(4-morpholinyl)ethoxy)-3,4-dihydro-2H,15′H-spiro[naphthalene-1,22′-[20]oxa[13]thia[1,14]diazatetracyclo [14.7.2.0~3,6~.0~19,24~]pentacosa[8,16,18,24]tetraen]-15′-one 13′,13′-dioxide] | – | – | 0.165 nM | 137 nM | –
11 | CO[C@]1(Cc2cc(C)on2)/C=C/C[C@H](C)[C@@H](C)S(=O)(=O)NC(=O)c2ccc3c(c2)N(C[C@@H]2CC[C@H]21)C[C@@]1(CCCc2cc(Cl)ccc21)CO3 [Example 100548, (1S,3′R,6′R,7′R,8′E,11′S,12′R)-6-chloro-7′-methoxy-11′,12′-dimethyl-7′-((5-methyl-1,2-oxazol-3-yl)methyl)-3,4-dihydro-2H,15′H-spiro[naphthalene-1,22′-[20]oxa[13]thia[1,14]diazatetracyclo [14.7.2.0~3,6~.0~19,24~]pentacosa[8,16,18,24]tetraen]-15′-one 13′,13′-dioxide] | – | – | 0.064 nM | 8410 nM | –
12 | CO[C@@]1(CN2CCN(Cc3nc(C)no3)CC2)/C=C/C[C@H](C)[C@@H](C)S(=O)(=O)NC(=O)c2ccc3c(c2)N(C[C@@H]2CC[C@H]21)C[C@@]1(CCCc2cc(Cl)ccc21)CO3 [Example 317, (1S,3′R,6′R,7′S,8′E,11′S,12′R)-6-chloro-7′-methoxy-11′,12′-dimethyl-7′-((4-((3-methyl-1,2,4-oxadiazol-5-yl)methyl)-1-piperazinyl)methyl)-3,4-dihydro-2H,15′H-spiro[naphthalene-1,22′-[20]oxa[13]thia[1,14]diazatetracyclo [14.7.2.0~3,6~.0~19,24~]pentacosa[8,16,18,24]tetraen]-15′-one 13′,13′-dioxide] | 0.186 nM | 88 nM | – | – | –
13 | COC[C@@H]1[C@@H](C)C/C=C/[C@@](CN2CCN3CCOC[C@@H]3C2)(OC)[C@@H]2CC[C@H]2CN2C[C@@]3(CCCc4cc(Cl)ccc43)COc3ccc(cc32)C(=O)NS1(=O)=O [Example 184, (1S,3′R,6′R,7′R,8′E,11′S,12′S)-6-chloro-7′-((9aS)-hexahydropyrazino[2,1-c][1,4]oxazin-8(1H)-ylmethyl)-7′-methoxy-12′-(methoxymethyl)-11′-methyl-3,4-dihydro-2H,15′H-spiro[naphthalene-1,22′-[20]oxa[13]thia[1,14]diazatetracyclo [14.7.2.0~3,6~.0~19,24~]pentacosa[8,16,18,24]tetraen]-15′-one 13′,13′-dioxide] | 0.068 nM | 17 nM | – | – | –
14 | C[C@@H]1[C@@H](C)C/C=C/[C@@](O)(c2cccnn2)[C@@H]2CC[C@H]2CN2C[C@@]3(CCCc4cc(Cl)ccc43)COc3ccc(cc32)C(=O)NS1(=O)=O (single isomer, unassigned) [Example 100348] | – | – | 0.135 nM | 125 nM | –
15 | CO[C@]1(CN2CCN(C3CC3)CC2)/C=C/C[C@H](C)[C@@H](C)S(=O)(=O)NC(=O)c2ccc3c(c2)N(C[C@@H]2CC[C@H]21)C[C@@]1(CCCc2cc(Cl)ccc21)CO3 [Example 91, (1S,3′R,6′R,7′R,8′E,11′S,12′R)-6-chloro-7′-((4-cyclopropyl-1-piperazinyl)methyl)-7′-methoxy-11′,12′-dimethyl-3,4-dihydro-2H,15′H-spiro[naphthalene-1,22′-[20]oxa[13]thia[1,14]diazatetracyclo [14.7.2.0~3,6~.0~19,24~]pentacosa[8,16,18,24]tetraen]-15′-one 13′,13′-dioxide] | 0.203 nM | 559 nM | – | – | –
16 | C[C@@H]1[C@@H](C)CCC[C@@]2(C[C@H](C)C(=O)O2)[C@@H]2CC[C@H]2CN2C[C@@]3(CCCc4cc(Cl)ccc43)COc3ccc(cc32)C(=O)NS1(=O)=O (stereo in doubt) [Example 100129] | – | – | 2.4 nM | 4870 nM | –
